Source: ChEMBL document CHEMBL4270604, “Hedgehog pathway inhibitors of the acylthiourea and acylguanidine class show antitumor activity on colon cancer in vitro and in vivo” (Eur J Med Chem, 2018)

Experiments:
in vitro [1] = details: human, Caco-2
Description: Apparent permeability of the compound from basolateral to apical side in human Caco2 cells after 120 mins by LC-MS/MS analysis

Cytochrome P450 1A2 = target: T1, Cytochrome P450 1A2 (Homo sapiens, UniProt P05177); experiment: Inhibition of recombinant human CYP1A2 expressed in insect cell microsomes using Luciferin-ME as substrate preincubated for 10 mins followed by NADPH addition measured after 30 mins by luminometric method; format: ADME; details: recombinant enzyme, 0.5 h
T1 sequence (P05177 whole entry): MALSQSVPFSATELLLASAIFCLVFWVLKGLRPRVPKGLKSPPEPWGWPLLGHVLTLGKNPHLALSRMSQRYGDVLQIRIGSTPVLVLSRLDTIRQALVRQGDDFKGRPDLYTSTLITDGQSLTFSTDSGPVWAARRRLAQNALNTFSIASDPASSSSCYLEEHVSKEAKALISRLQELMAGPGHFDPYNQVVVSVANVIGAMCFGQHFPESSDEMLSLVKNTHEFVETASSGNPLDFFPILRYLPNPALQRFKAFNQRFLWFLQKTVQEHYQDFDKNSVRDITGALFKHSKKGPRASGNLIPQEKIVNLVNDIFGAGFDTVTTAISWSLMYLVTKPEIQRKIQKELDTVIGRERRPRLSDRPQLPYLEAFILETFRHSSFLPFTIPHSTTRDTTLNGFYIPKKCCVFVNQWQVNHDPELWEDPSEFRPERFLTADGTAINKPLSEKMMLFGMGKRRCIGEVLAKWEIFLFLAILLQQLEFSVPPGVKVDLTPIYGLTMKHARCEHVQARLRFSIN

[2] = AUC (infinity) in CD1 mouse at 200 mg/kg, po administered as single dose by HPLC-MS/MS analysis; format: ADME, organism-based; set-up: dose 200 mg/kg, route oral, time infinity; details: in vivo
CYP2D6 [3] = target: T2, CYP2D6 (Homo sapiens, UniProt P10635); experiment: Inhibition of recombinant human CYP2D6 expressed in insect cell microsomes at 1 uM using Luciferin-ME EGE as substrate preincubated for 30 mins followed by NADPH addition measured after 45 mins by luminometric method; format: ADME; details: probe Luciferin-ME EGE
T2 sequence (P10635 whole entry): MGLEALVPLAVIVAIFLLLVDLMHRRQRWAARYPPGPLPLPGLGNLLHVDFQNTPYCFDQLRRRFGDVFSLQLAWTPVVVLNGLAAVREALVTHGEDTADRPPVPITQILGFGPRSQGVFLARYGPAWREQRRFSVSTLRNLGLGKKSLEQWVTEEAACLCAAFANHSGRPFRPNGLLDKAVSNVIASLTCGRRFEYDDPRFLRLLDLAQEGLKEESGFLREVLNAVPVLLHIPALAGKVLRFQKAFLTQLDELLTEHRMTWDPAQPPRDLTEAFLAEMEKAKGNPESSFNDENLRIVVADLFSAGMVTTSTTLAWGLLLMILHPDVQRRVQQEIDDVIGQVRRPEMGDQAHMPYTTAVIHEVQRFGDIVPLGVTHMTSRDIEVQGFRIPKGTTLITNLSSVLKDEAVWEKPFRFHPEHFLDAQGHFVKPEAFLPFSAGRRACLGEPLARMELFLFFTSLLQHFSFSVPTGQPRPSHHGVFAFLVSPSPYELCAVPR

[4] = Drug recovery in mouse plasma at 37 degC after 120 mins by HPLC-MS/MS analysis; format: ADME, cell-free; details: read-out: Drug recovery
in vitro [5] = details: human, Caco-2; remark: listed apart in the source
Description: Apparent permeability of the compound from apical to basolateral side in human Caco2 cells assessed as drug recovery after 120 mins by LC-MS/MS analysis

CYP1A2 = target: T3, CYP1A2 (Homo sapiens, UniProt P05177); experiment: Inhibition of recombinant human CYP1A2 expressed in insect cell microsomes at 5 uM using Luciferin-ME as substrate preincubated for 10 mins followed by NADPH addition measured after 30 mins by luminometric method; format: ADME; details: probe Luciferin-ME
T3 sequence (P05177 whole entry): T1 sequence (P05177 whole entry)

Mus musculus [6] = experiment: Clast in CD1 mouse at 200 mg/kg, po administered as single dose by HPLC-MS/MS analysis; format: ADME, organism-based; details: in vivo
[7] = Stability of the compound in mouse deproteinized plasma at 37 degC after 120 mins by HPLC-MS/MS analysis; format: ADME, cell-free; details: 2 h
[8] = Terminal half life in CD1 mouse at 200 mg/kg, po administered as single dose by HPLC-MS/MS analysis; format: ADME, organism-based; details: in vivo, read-out: beta t1/2 (converted)
[9] = Cmax in CD1 mouse at 200 mg/kg, po administered as single dose by HPLC-MS/MS analysis; format: ADME, organism-based; set-up: dose 200 mg/kg, route oral; details: in vivo
[10] = Apparent terminal volume of distribution in CD1 mouse at 200 mg/kg, po administered as single dose by HPLC-MS/MS analysis; format: ADME, organism-based; details: in vivo, read-out: Vz/F
CYP2D6 [11] = target: T2, CYP2D6; experiment: Inhibition of recombinant human CYP2D6 expressed in insect cell microsomes at 10 uM using Luciferin-ME EGE as substrate preincubated for 30 mins followed by NADPH addition measured after 45 mins by luminometric method; format: ADME; details: probe Luciferin-ME EGE
CYP2C19 = CYP2C19 (Homo sapiens, UniProt P33261); experiment: Inhibition of recombinant human CYP2C19 expressed in insect cell microsomes at 1 uM using Luciferin-H EGE as substrate preincubated for 20 mins followed by NADPH addition measured after 30 mins by luminometric method; format: ADME; details: probe Luciferin-H EGE
Chain of CYP2C19 (P33261 whole entry): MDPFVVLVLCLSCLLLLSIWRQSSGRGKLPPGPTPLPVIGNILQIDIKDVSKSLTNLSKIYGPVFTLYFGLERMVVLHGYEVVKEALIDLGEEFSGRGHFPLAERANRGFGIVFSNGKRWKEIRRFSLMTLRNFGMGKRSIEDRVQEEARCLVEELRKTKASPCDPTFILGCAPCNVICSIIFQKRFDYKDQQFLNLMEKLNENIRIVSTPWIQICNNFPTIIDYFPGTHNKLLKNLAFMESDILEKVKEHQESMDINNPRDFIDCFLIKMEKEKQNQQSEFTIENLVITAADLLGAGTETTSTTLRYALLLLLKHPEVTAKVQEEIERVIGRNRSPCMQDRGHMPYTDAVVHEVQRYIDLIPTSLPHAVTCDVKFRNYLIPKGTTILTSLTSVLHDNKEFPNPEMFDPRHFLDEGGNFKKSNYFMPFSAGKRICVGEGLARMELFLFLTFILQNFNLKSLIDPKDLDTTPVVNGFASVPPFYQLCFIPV

[12] = Intrinsic clearance in mouse liver […] per million cells at 1 uM after 120 mins by HPLC-MS/MS analysis; format: ADME; details: 2 h
[13] = Half life in cryopreserved mouse liver microsomes at 1 uM after 120 mins by HPLC-MS/MS analysis; format: ADME, microsome
Mus musculus [14] = experiment: Toxicity in athymic nude mouse xenografted with human LS180 cells assessed as body weight loss at 200 mg/kg, po administered 5 days per week for 2 weeks; format: organism-based; details: in vivo
LS180 = experiment: Antitumor activity against human LS180 cells xenografted in athymic nude mouse assessed as tumor growth inhibition at 200 mg/kg, po administered 5 days per week for 2 weeks relative to vehicle-treated control; format: functional; details: read-out: TGI
[15] = Intrinsic clearance in mouse liver microsomes at 1 uM after 120 mins by HPLC-MS/MS analysis; format: ADME, microsome; details: read-out: CLH
[16] = Drug recovery in mouse deproteinized plasma at 37 degC after 120 mins by HPLC-MS/MS analysis; format: ADME, cell-free; details: read-out: Drug recovery

| SMILES | Papp B→A at 2 h (in vitro [1]) [×10⁻⁶ cm/s] | inhibition (INH) (Cytochrome P450 1A2) | AUC(0-inf) [2] [µg·h/mL] | inhibition at 0.75 h, 1 µM (CYP2D6 [3]) [%] | remaining at 2 h [4] [%] | recovery at 2 h (in vitro [5]) [%] | inhibition at 0.5 h, 5 µM (CYP1A2) [%] | Clast (Mus musculus [6]) [ng/mL] | Stability [7] | half-life [8] [h] | Cmax [9] [ng/mL] | Vd/F [10] [L/kg] | inhibition at 0.75 h, 10 µM (CYP2D6 [11]) [%] | inhibition at 0.5 h, 1 µM (CYP2C19) [%] | CLH [12] [µL/min] | half-life at 1 µM [13] [min] | Activity (Mus musculus [14]) | inhibition in vivo at 200 mg/kg (LS180) [%] | CLint scaled at 1 µM [15] [mL/min/kg] | remaining at 2 h [16] [%] |
| --- | --- | --- | --- | --- | --- | --- | --- | --- | --- | --- | --- | --- | --- | --- | --- | --- | --- | --- | --- | --- |
| COc1cc(C(=O)NC(=N)Nc2ccc(C)c(NC(=O)c3ccc(-c4ccc(F)cc4)cc3)c2)cc(OC)c1OC.Cl | 0.37 | Dose-dependent effect | 224 | 20 | 66.6 | 33 | 58 | 90.7 | Stable | 2.6 | 17300 | 3.32 | 21 | 59 | – | – | – | – | – | – |
| COc1cc(C(=O)NC(=N)Nc2ccc(C)c(NC(=O)c3ccc(CCc4ccccc4)cc3)c2)cc(OC)c1OC.Cl | 0.737 | Dose-dependent effect | 137 | 15 | 81.3 | 41.1 | 43 | 50.7 | Stable | 2.5 | 11000 | 5.28 | 11 | 67 | 286 | 8.07 | Non-Toxic | 48 | 756 | – |
| COc1cc(C(=O)NC(=N)Nc2ccc(C)c(NC(=O)c3ccc(-c4ccccc4)cc3)c2)cc(OC)c1OC.Cl | 0.651 | Dose-dependent effect | 237 | 19 | 72.1 | 16.5 | 64 | 74.2 | – | 2.4 | 29600 | 2.96 | 23 | 57 | – | – | – | – | – | 83 |
